The structures appear in SMILES notation. A value given as a limit tells only on which side of the number the result lay.

This experiment relates to HEK293T cells carrying the ATF4 luciferase reporter. The experiment can be described thus: ATF4-Luc assay, in vitro model of Vanishing Cell White Matter Disease (VWMD). As to conditions: Homo sapiens, HEK-293T, 1 μg/mL tunicamycin, 7 hours, One Glo luminescence. In kind it is cell-based. The essentials:
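Reporter cells were stably generated by retroviral transduction and puromycin selection, then seeded at 30,000 cells/well. Next day, cells received 1 μg/mL tunicamycin with 200 nM test compound for 7 h, and luciferase luminescence was read with a one-step reagent. Values reported as EC50.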
Usually EC50 stands for the concentration needed to bring the measured effect to its halfway point. For `Cc1cc2c(NC34CC(NC(=O)COc5cc(F)c(F)c(F)c5)(C3)C4)nccn2n1` [Compound 495, N-{3-[(2-methylpyrazolo[1,5-a]pyrazin-4-yl)amino]bicyclo[1.1.1]pentan-1-yl}-2-(3,4,5-trifluorophenoxy)acetamide], the EC50 lay in the range of 250 to 1000 nM.
The result for `O=C(COc1ccc(Cl)c(F)c1)NC12CC(NC(=O)c3cnc(C(F)(F)F)cn3)(C1)C2` [Compound 115, N-{3-[2-(4-chloro-3-fluorophenoxy)acetamido]bicyclo[1.1.1]pentan-1-yl}-5-(trifluoromethyl)pyrazine-2-carboxamide] reads 1000 to 2000 nM.
Take `Cc1cc(C(=O)NC23CCC(NC(=O)COc4ccc(Cl)c(F)c4)(CC2)[C@H](O)C3)n(C)n1` (single isomer, unassigned) [Compound 486]: the EC50 lay within 50 to 250 nM.
With `Cc1cnc(C(=O)NC23CC(NC(=O)COc4ccc(Cl)c(F)c4)(C2)C3)s1` [Compound 469, N-{3-[2-(4-chloro-3-fluorophenoxy)acetamido]bicyclo[1.1.1]pentan-1-yl}-5-methyl-1,3-thiazole-2-carboxamide] the figure was 250 to 1000 nM; with `Cn1cc2c(NC34CC(NC(=O)COc5ccc(Cl)c(F)c5)(C3)C4)nccc2n1` [Compound 492, 2-(4-chloro-3-fluorophenoxy)-N-{3-[(2-methyl-2H-pyrazolo[4,3-c]pyridin-4-yl)amino]bicyclo[1.1.1]pentan-1-yl}acetamide], 50 to 250 nM.
With `CN1CCc2c(cccc2NC23CC(NC(=O)COc4ccc(Cl)c(F)c4)(C2)C3)C1` [Compound 491, 2-(4-chloro-3-fluorophenoxy)-N-{3-[(2-methyl-1,2,3,4-tetrahydroisoquinolin-5-yl)amino]bicyclo[1.1.1]pentan-1-yl}acetamide] the figure was greater than 2000 nM; with `Cc1cc(C(=O)NC23CC(NC(=O)COc4ccc5c(c4)OC(F)(F)O5)(C2)C3)n(C)n1` [Compound 442, N-(3-{2-[(2,2-difluoro-2H-1,3-benzodioxol-5-yl)oxy]acetamido}bicyclo[1.1.1]pentan-1-yl)-1,3-dimethyl-1H-pyrazole-5-carboxamide], 250 to 1000 nM; with `N#Cc1cccc(C(=O)NC23CCC(NC(=O)COc4ccc(Cl)c(F)c4)(CC2)CC3O)c1` (centres unmarked) [Compound 209, N-{4-[2-(4-chloro-3-fluorophenoxy)acetamido]-2-hydroxybicyclo[2.2.2]octan-1-yl}-3-cyanobenzamide], 250 to 1000 nM.
With `COc1cc(F)ccc1C(=O)NC12CC(NC(=O)COc3ccc(Cl)c(F)c3)(C1)C2` [Compound 527, N-{3-[2-(4-chloro-3-fluorophenoxy)acetamido]bicyclo[1.1.1]pentan-1-yl}-4-fluoro-2-methoxybenzamide] the figure was 1000 to 2000 nM; with `CCc1cc(C(=O)NC23CCC(NC(=O)COc4ccc(Cl)c(F)c4)(CC2)[C@@H](O)C3)on1` [Compound 618, N-{(3S)-4-[2-(4-chloro-3-fluorophenoxy)acetamido]-3-hydroxybicyclo[2.2.2]octan-1-yl}-3-ethyl-1,2-oxazole-5-carboxamide], less than 50 nM; with `CC(=O)NCc1ccnc(C(=O)NC23CC(NC(=O)COc4ccc(Cl)c(F)c4)(C2)C3)c1` [Compound 194, 4-(acetamidomethyl)-N-{3-[2-(4-chloro-3-fluorophenoxy)acetamido]bicyclo[1.1.1]pentan-1-yl}pyridine-2-carboxamide], 50 to 250 nM.
As for `CN(C)CCOc1ccccc1C(=O)NC12CC(NC(=O)COc3ccc(Cl)c(F)c3)(C1)C2` [Compound 549, N-{3-[2-(4-chloro-3-fluorophenoxy)acetamido]bicyclo[1.1.1]pentan-1-yl}-2-[2-(dimethylamino)ethoxy]benzamide], the EC50 is greater than 2000 nM.
For `CC(C)Oc1ccc(C(=O)NC23CC(NC(=O)COc4ccc(Cl)cc4)(C2)C3)nc1` [Compound 185, N-{3-[2-(4-chlorophenoxy)acetamido]bicyclo[1.1.1]pentan-1-yl}-5-[(propan-2-yl)oxy]pyridine-2-carboxamide], the EC50 is 250 to 1000 nM.
Turning to `O=C(COc1ccc(Cl)c(F)c1)NC12CCC(NC(=O)c3cccc(F)c3)(CC1)C[C@@H]2O` [Compound 681, N-{(3S)-4-[2-(4-chloro-3-fluorophenoxy)acetamido]-3-hydroxybicyclo[2.2.2]octan-1-yl}-3-fluorobenzamide], the concentration for a half-maximal effect (EC50) was less than 50 nM.
Regarding `Cn1nc(C(=O)NC23CC(NC(=O)COc4ccc(Cl)c(F)c4)(C2)C3)c2ccccc21` [Compound 823, N-{3-[2-(4-chloro-3-fluorophenoxy)acetamido]bicyclo[1.1.1]pentan-1-yl}-1-methyl-1H-indazole-3-carboxamide], the EC50 was greater than 2000 nM.
With `Cc1nn(C)cc1-c1ccnc(NC23CC(NC(=O)COc4ccc(Cl)c(F)c4)(C2)C3)n1` [Compound 429, 2-(4-chloro-3-fluorophenoxy)-N-(3-{[4-(1,3-dimethyl-1H-pyrazol-4-yl)pyrimidin-2-yl]amino}bicyclo[1.1.1]pentan-1-yl)acetamide] the figure was greater than 2000 nM; with `COc1cc(C(=O)NC23CCC(NC(=O)COc4ccc(Cl)c(F)c4)(C2)C3)on1` [Compound 707, N-{4-[2-(4-chloro-3-fluorophenoxy)acetamido]bicyclo[2.1.1]hexan-1-yl}-3-methoxy-1,2-oxazole-5-carboxamide], 250 to 1000 nM.
The result for `O=C(COc1ccc(Cl)c(F)c1)NC12CC(NC(=O)c3c(F)cccc3F)(C1)C2` [Compound 512, N-{3-[2-(4-chloro-3-fluorophenoxy)acetamido]bicyclo[1.1.1]pentan-1-yl}-2,6-difluorobenzamide] reads greater than 2000 nM.
The result for `O=C(COc1ccc(Cl)c(F)c1)NC12CC(Nc3cnc(C(F)(F)F)nc3)(C1)C2` [Compound 755, 2-(4-chloro-3-fluorophenoxy)-N-(3-{[2-(trifluoromethyl)pyrimidin-5-yl]amino}bicyclo[1.1.1]pentan-1-yl)acetamide] reads 250 to 1000 nM.
Regarding `CC(C)c1nnsc1C(=O)NC12CC(NC(=O)COc3ccc(Cl)c(F)c3)(C1)C2` [Compound 893, N-{3-[2-(4-chloro-3-fluorophenoxy)acetamido]bicyclo[1.1.1]pentan-1-yl}-4-(propan-2-yl)-1,2,3-thiadiazole-5-carboxamide], the EC50 is 1000 to 2000 nM.
The result for `Cc1cc(C(=O)NC23CCC(NC(=O)COc4ccc(Cl)c(F)c4)(CC2)C(O)C3)nn1C` (centres unmarked) [Compound 468, N-{4-[2-(4-chloro-3-fluorophenoxy)acetamido]-3-hydroxybicyclo[2.2.2]octan-1-yl}-1,5-dimethyl-1H-pyrazole-3-carboxamide] reads 250 to 1000 nM; that for `Cn1nc(C(=O)NC23CC(NC(=O)COc4ccc(Cl)c(F)c4)(C2)C3)cc1-c1ccccc1` [Compound 345, N-{3-[2-(4-chloro-3-fluorophenoxy)acetamido]bicyclo[1.1.1]pentan-1-yl}-1-methyl-5-phenyl-1H-pyrazole-3-carboxamide], 50 to 250 nM; that for `CCn1nc(C)cc1C(=O)NC12CCC(NC(=O)COc3ccc(Cl)c(F)c3)(CC1)C(O)C2` (centres unmarked) [Compound 603, N-{4-[2-(4-chloro-3-fluorophenoxy)acetamido]-3-hydroxybicyclo[2.2.2]octan-1-yl}-1-ethyl-3-methyl-1H-pyrazole-5-carboxamide], 250 to 1000 nM.
The result for `O=C(COc1ccc(Cl)c(F)c1)NC12CC(Nc3cc(C(F)(F)F)ccn3)(C1)C2` [Compound 757, 2-(4-chloro-3-fluorophenoxy)-N-(3-{[4-(trifluoromethyl)pyridin-2-yl]amino}bicyclo[1.1.1]pentan-1-yl)acetamide] reads greater than 2000 nM.
With `O=C(COc1ccc2c(c1)OC(F)(F)O2)NC12CC(NC(=O)c3cnc(-c4ccccc4)o3)(C1)C2` [Compound 742, N-(3-{2-[(2,2-difluoro-2H-1,3-benzodioxol-5-yl)oxy]acetamido}bicyclo[1.1.1]pentan-1-yl)-2-phenyl-1,3-oxazole-5-carboxamide] the figure was less than 50 nM; with `Cc1cc(C(=O)NC23CC(NC(=O)COc4ccc(Cl)c(F)c4)(C2)C3)sn1` [Compound 564, N-{3-[2-(4-chloro-3-fluorophenoxy)acetamido]bicyclo[1.1.1]pentan-1-yl}-3-methyl-1,2-thiazole-5-carboxamide], 50 to 250 nM; with `O=C(COc1ccc(Cl)c(Cl)c1)NC12CC(NC(=O)c3cc(CO)ccn3)(C1)C2` [Compound 166, N-{3-[2-(3,4-dichlorophenoxy)acetamido]bicyclo[1.1.1]pentan-1-yl}-4-(hydroxymethyl)pyridine-2-carboxamide], 50 to 250 nM.
Consider `O=C(COc1ccc(Cl)c(F)c1)NC12CC(NC(=O)c3coc(C(F)(F)F)c3)(C1)C2` [Compound 544, N-{3-[2-(4-chloro-3-fluorophenoxy)acetamido]bicyclo[1.1.1]pentan-1-yl}-5-(trifluoromethyl)furan-3-carboxamide], for which the EC50 is less than 50 nM.
The result for `Cc1cnccc1C(=O)NC12CC(NC(=O)COc3ccc(Cl)c(F)c3)(C1)C2` [Compound 814, N-{3-[2-(4-chloro-3-fluorophenoxy)acetamido]bicyclo[1.1.1]pentan-1-yl}-3-methylpyridine-4-carboxamide] reads greater than 2000 nM.
For `O=C(COc1ccc(Cl)c(F)c1)NC12CCC(NC(=O)c3onc4ccccc34)(CC1)CC2O` (centres unmarked) [Compound 328, N-{4-[2-(4-chloro-3-fluorophenoxy)acetamido]-3-hydroxybicyclo[2.2.2]octan-1-yl}-2,1-benzoxazole-3-carboxamide], the EC50 fell in the range of 1000 to 2000 nM.
With `O=C(COc1ccc(Cl)c(Cl)c1)NC12CC(NC(=O)c3ccc(OC(F)F)cn3)(C1)C2` [Compound 153, N-{3-[2-(3,4-dichlorophenoxy)acetamido]bicyclo[1.1.1]pentan-1-yl}-5-(difluoromethoxy)pyridine-2-carboxamide] the figure was 50 to 250 nM; with `CCc1nc(C)c(C(=O)NC23CC(NC(=O)COc4ccc(Cl)c(F)c4)(C2)C3)o1` [Compound 906, N-{3-[2-(4-chloro-3-fluorophenoxy)acetamido]bicyclo[1.1.1]pentan-1-yl}-2-ethyl-4-methyl-1,3-oxazole-5-carboxamide], 250 to 1000 nM.

Source of the values: patent US10913727B2, “Modulators of the integrated stress pathway” (Calico Life Sciences LLC, priority 2016, dated 2021).
